The record followed here is patent publication US20100021940A1, “Method for Determining the Activity of a Protease in a Sample” (ASTRAZENECA AB, priority 2006, published 2010).

Assay [1] deals with T1, MMP1 (Homo sapiens, UniProt P03956).
T1 sequence (P03956 100-469): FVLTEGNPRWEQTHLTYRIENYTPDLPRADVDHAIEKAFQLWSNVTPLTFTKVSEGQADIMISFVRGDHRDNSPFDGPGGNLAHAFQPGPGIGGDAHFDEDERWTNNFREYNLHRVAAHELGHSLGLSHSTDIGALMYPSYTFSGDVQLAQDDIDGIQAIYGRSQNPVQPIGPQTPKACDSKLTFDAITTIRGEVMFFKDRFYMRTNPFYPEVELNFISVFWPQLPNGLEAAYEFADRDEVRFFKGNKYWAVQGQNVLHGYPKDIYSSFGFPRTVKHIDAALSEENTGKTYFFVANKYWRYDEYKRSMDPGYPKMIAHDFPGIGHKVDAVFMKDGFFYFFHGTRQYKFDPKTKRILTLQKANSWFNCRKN
The assay is described as follows: Activity of purified MMP on substrate (reporter release). The following applies: Table 1b; MMP1. The assay is classed as biochemical. An excerpt:
(§1) In order to confirm the specificity of the substrates for various MMPs, standard enzymatic assays were adapted to monitor the release of reporter. The reporter was either analysed by a LC-MS method as described in Example 3a, or by a LC-UV method as described in Example 4. A protocol for testing against other matrix metalloproteinases, including MMP9, using expressed and purified pro MMP is described, for instance, by C.

In assay [2] the target is MMP3 (Homo sapiens, UniProt P08254). The description is as above. The following applies: Table 1b; MMP3. The class given is biochemical.
From the text: as §1

Assay [3] addresses T2, MMP8 (Homo sapiens, UniProt P22894).
T2 construct: purchased Calbiochem
The description is as above. The assay is classed as biochemical. The following applies: Table 1b; MMP8. As for the experimental part: In order to confirm the specificity of the substrates for various MMPs, standard enzymatic assays were adapted to monitor the release of reporter. The reporter was either analysed by a LC-MS method as described in Example 3a, or by a LC-UV method as described in Example 4. Purified pro-MMP8 is purchased from Calbiochem. The enzyme (at 10 μg/ml) is activated by p-amino-phenyl-mercuric acetate (APMA) at 1 mM for 2.5 h, 35° C. The activated enzyme can be used to monitor activity of substrates as follows: MMP8 (200 ng/ml final concentration) is incubated for 90 minutes at 35° C.

The subject of assay [4] is MMP9. The assay is described as above. The following applies: Table 1b; MMP9. The assay is classed as biochemical, human. The source says:
In order to confirm the specificity of the substrates for various MMPs, standard enzymatic assays were adapted to monitor the release of reporter. The reporter was either analysed by a LC-MS method as described in Example 3a, or by a LC-UV method as described in Example 4. […] The enzyme can be used to monitor activity of substrates as follows: […]

Assay [5] concerns MMPs. The assay is described as follows: Cleavage of separated diastereomers by MMPs to liberate the reporter. The class given is biochemical.
The subject of assay [6] is MMP. Kind of assay: MMP activity in synovial fluid (reporter release, HPLC). The class given is biochemical, human. As for the experimental part: Synovial fluid (SF) was obtained from patients with rheumatoid arthritis (7 subjects) and systemic lupus erythematosus (SLE) (1 subject).
The amount of each sample was adjusted so that approximately 4 mg of total protein was used in the assay (Table 13).
The samples were made up to 180 μl with a buffer consisting of 50 mM Tricine pH 7.5, 200 mM NaCl, 10 mM CaCl2, 20 μM ZnCl2 and 0.05% Brij-35.
To the samples was added 20 μl of the substrate Methyl 1-acetyl-L-prolyl-L-leucylglycyl-α-R-(4-nitrophenylamino)-glycyl-L-leucylglycinate (Example 1.2) solution (10 mM in methanol). After 3 h incubation at 37° C., the reaction was stopped with 5 μl 200 mM EDTA. The samples were filtered through a precolumn (Waters OASIS HLB Icc, part no. 94225, pre-conditioned with 1 ml of ethanol followed by 1 ml water) which was eluted with 1 ml water and 1 ml of 90% ethanol. The samples were evaporated to dryness under a stream of nitrogen, redissolved in 200 μl 50% ethanol and vigorously mixed with vortex mixer and centrifuged (1000 g, 2 min). Of the supernatant, 10-160 μl aliquots were analysed for the reporter 4-nitroaniline with HPLC (detection as in example 3 or with UV at […]). A standard curve was obtained by from samples spiked with quantified amounts of the reporter (4NA) and treated in the same way as the analytical samples.

“And” between values parts separate entries of the source, which are not always exact repeats. Identical values can stand only once.

Sequence of MMP3 (P08254 100-477): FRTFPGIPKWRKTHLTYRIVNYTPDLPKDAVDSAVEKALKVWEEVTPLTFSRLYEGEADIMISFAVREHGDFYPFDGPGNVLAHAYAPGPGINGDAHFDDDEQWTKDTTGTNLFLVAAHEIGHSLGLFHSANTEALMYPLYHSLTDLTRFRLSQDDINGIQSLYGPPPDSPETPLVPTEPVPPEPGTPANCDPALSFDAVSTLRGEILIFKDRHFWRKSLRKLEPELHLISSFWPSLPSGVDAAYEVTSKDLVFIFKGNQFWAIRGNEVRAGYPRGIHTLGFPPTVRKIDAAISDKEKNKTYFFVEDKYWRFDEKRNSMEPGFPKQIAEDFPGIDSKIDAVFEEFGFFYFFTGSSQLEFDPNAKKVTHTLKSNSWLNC
T2 sequence (P22894 101-467): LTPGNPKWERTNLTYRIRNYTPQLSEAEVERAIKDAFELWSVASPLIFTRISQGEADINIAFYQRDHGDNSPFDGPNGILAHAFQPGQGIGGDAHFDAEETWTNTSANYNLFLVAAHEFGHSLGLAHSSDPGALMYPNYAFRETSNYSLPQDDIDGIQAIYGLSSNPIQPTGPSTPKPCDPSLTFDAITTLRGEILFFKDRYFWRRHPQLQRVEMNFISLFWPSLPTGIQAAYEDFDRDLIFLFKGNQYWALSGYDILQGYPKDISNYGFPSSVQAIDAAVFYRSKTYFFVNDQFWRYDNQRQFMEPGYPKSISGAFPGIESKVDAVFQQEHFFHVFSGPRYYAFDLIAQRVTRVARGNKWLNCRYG

For `COC(=O)CNC(=O)[C@H](CC(C)C)NC(=O)[C@@H](NC(=O)CNC(=O)[C@H](CC(C)C)NC(=O)[C@@H]1CCCN1C(C)=O)OCc1ccc(-c2ccccc2)cc1` (single isomer, unassigned) [Example 1.3, Methyl 1-acetyl-L-prolyl-L-leucylglycyl-α-S-(biphenyl-4-ylmethoxy)-glycyl-L-leucylglycinate], the “Activity of selected substrates with MMPs” value is given as 35.4 units/s (molRXH/molEnz * s) in assay [1], 5.5 units/s (molRXH/molEnz * s) in assay [2], 26.9 units/s (molRXH/molEnz * s) in assay [3] and 63.6 units/s (molRXH/molEnz * s) in assay [4]. Moreover, the “Cleavage by MMPs to liberate the reporter” value (“Cleavage by MMPs” below) in assay [5] is reported as “rapidly cleaved by MMPs”. Further, the “release of reporter 4-biphenylmethanol” value in assay [6] (pooled sample of synovial fluid from all subjects in Table 13, same procedure) worked out at 33.2 nmol/ml SF.
Take `COC(=O)CNC(=O)[C@H](CC(C)C)NC(=O)[C@@H](NC(=O)CNC(=O)[C@H](CC(C)C)NC(=O)[C@@H]1CCCN1C(C)=O)Nc1ccc([N+](=O)[O-])cc1` [Example 1.2, Methyl 1-acetyl-L-prolyl-L-leucylglycyl-α-R-(4-nitrophenylamino)-glycyl-L-leucylglycinate]: in assay [5], the “Cleavage by MMPs” value is “rapidly cleaved by MMPs”. Besides, the “4NA released (MMP activity in synovial fluid)” value in assay [6] (synovial fluid of individual subjects (rheumatoid arthritis, SLE), approx. 4 mg total protein, 3 h at 37° C.) was 94.4 nmol/ml SF and 17.4 nmol/ml SF and 15.9 nmol/ml SF and 23.9 nmol/ml SF and 26.4 nmol/ml SF and 16.5 nmol/ml SF and 20.6 nmol/ml SF and 12.0 nmol/ml SF.
In the case of `COC(=O)CNC(=O)[C@H](CC(C)C)NC(=O)[C@@H](NC(=O)CNC(=O)[C@H](CC(C)C)NC(=O)[C@@H]1CCCN1C(C)=O)Nc1ccc(-c2nnc(-c3ccc(C)cc3)o2)cc1` [Example 1.4, Methyl 1-acetyl-L-prolyl-L-leucylglycyl-α-R-[4-(5-p-tolyl-[1,3,4]oxadiazol-2-yl)-phenylamino]-glycyl-L-leucylglycinate], the “Activity of selected substrates with MMPs” value is reported as 0.00 units/s (molRXH/molEnz * s) in assay [1], 0.00 units/s (molRXH/molEnz * s) in assay [2], 0.05 units/s (molRXH/molEnz * s) in assay [3] and 0.58 units/s (molRXH/molEnz * s) in assay [4]. The “Cleavage by MMPs” value in assay [5] is “rapidly cleaved by MMPs”.
Take `CC(=O)N1CCC[C@H]1C(=O)N[C@@H](CC(C)C)C(=O)NCC(=O)N[C@@H](Nc1ccc([N+](=O)[O-])cc1)C(=O)N[C@@H](Cc1ccccc1)C(=O)Nc1ccccc1` [Example 1.5, 1-acetyl-L-prolyl-L-leucylglycyl-α-R-(4-nitrophenylamino)-glycyl-N-phenyl-L-phenylalaninamide]: the “Activity of selected substrates with MMPs” value is reported as 2.48 units/s (molRXH/molEnz * s) in assay [1], 0.18 units/s (molRXH/molEnz * s) in assay [2], 11.4 units/s (molRXH/molEnz * s) in assay [3] and 11.5 units/s (molRXH/molEnz * s) in assay [4]. Besides, in assay [5], the “Cleavage by MMPs” value is “rapidly cleaved by MMPs”.
